Measured values: patent US4482565A, “β-Lactam-containing antibacterial agents and β-lactamase inhibitors” (Farmitalia Carlo Erba S.p.A., priority 1981, dated 1984)
Converted amounts (≈) assume the structure as drawn.

What was measured:
Type in all cases: cell-based
Escherichia coli V23 = test: in vitro antibacterial activity (MIC); details: read-out: MIC (minimal inhibitory concentration)
Proteus mirabilis V15 = test: in vitro antibacterial activity (MIC); details: read-out: MIC (minimal inhibitory concentration)
[1] = tested on: Salmonella abortivoequina; test: in vitro antibacterial activity (MIC); details: collection strain, read-out: MIC (minimal inhibitory concentration)
[2] = tested on: Salmonella Saint Paul F20; test: in vitro antibacterial activity (MIC); details: read-out: MIC (minimal inhibitory concentration)
Escherichia coli R 997 = test: in vitro antibacterial activity (MIC); details: R997, read-out: MIC (minimal inhibitory concentration)
Escherichia coli RGN 238 = test: in vitro antibacterial activity (MIC); details: RGN238, lactamase producer, read-out: MIC (minimal inhibitory concentration)
Enterobacter sp V19 = test: in vitro antibacterial activity (MIC); details: read-out: MIC (minimal inhibitory concentration)
[3] = tested on: Klebsiella aerogenes ATCC 1082 E; test: in vitro antibacterial activity (MIC); details: Klebsiella aerogenes, ATCC1082, read-out: MIC (minimal inhibitory concentration)
Proteus mirabilis = test: in vitro antibacterial activity (MIC), collection strain; details: read-out: MIC (minimal inhibitory concentration)
Enterobacter cloacae 214 = test: in vitro antibacterial activity (MIC); details: lactamase producer, read-out: MIC (minimal inhibitory concentration)
[4] = tested on: Staphylococcus aureus 153; test: in vitro antibacterial activity (MIC); details: lactamase producer, read-out: MIC (minimal inhibitory concentration)
Escherichia coli R 6 K = test: in vitro antibacterial activity (MIC); details: R6K, read-out: MIC (minimal inhibitory concentration)
[5] = tested on: Staphylococcus aureus PV2; test: in vitro antibacterial activity (MIC); details: read-out: MIC (minimal inhibitory concentration)
Proteus vulgaris V15 = test: in vitro antibacterial activity (MIC); details: read-out: MIC (minimal inhibitory concentration)
Salmonella derby F14 = test: in vitro antibacterial activity (MIC); details: Salmonella enterica, read-out: MIC (minimal inhibitory concentration)
[6] = tested on: Pseudomonas aeruginosa ATCC 2598; test: in vitro antibacterial activity (MIC); details: ATCC2598, collection strain, read-out: MIC (minimal inhibitory concentration)
Shigella flexneri = test: in vitro antibacterial activity (MIC); details: read-out: MIC (minimal inhibitory concentration)
Description: A series of tests was carried out in vitro to compare the activities of (5R)-acetoxymethyl-2-acetoxymethyl-2-penum-3-carboxylate (Laboratory code FCE/20077/B40/341), (5R) acetoxymethyl-2-[(1-methyl-1H-tetrazol-5-yl)-thiomethyl]-2-penem-3-carboxylate (compound A), three reference compounds (ampicillin, cefoxitin, and thienamycin), and compound 387, which is (5R)-2-acetoxymethyl-6-(1-hydroxyethyl)-2-penem-3-carboxylic acid. The acetoxymethoxy ester of compound 387 is prepared in Example 51 and the sodium salt of the acid is prepared in Example 98 infra. Table 1 below reports the results of the above assays as MIC (minimal inhibitory concentration).

[7] = tested on: Pseudomonas aeruginosa FI; test: in vitro antibacterial activity (MIC); details: collection strain, read-out: MIC (minimal inhibitory concentration)
[8] = tested on: Staphylococcus aureus 209P; test: in vitro antibacterial activity (MIC); details: collection strain, read-out: MIC (minimal inhibitory concentration)
Escherichia coli R 46 = test: in vitro antibacterial activity (MIC); details: Escherichia coli, R46, read-out: MIC (minimal inhibitory concentration)
Escherichia coli B Cef R = test: in vitro antibacterial activity (MIC); details: read-out: MIC (minimal inhibitory concentration)
Salmonella typhimurium [9] = test: in vitro antibacterial activity (MIC), collection strain; details: Salmonella enterica, TYPHIMURIUM, read-out: MIC (minimal inhibitory concentration)
Proteus mirabilis 525 = test: in vitro antibacterial activity (MIC); details: Proteus mirabilis, 525, read-out: MIC (minimal inhibitory concentration)
[10] = tested on: Enterobacter cloacae P 99; test: in vitro antibacterial activity (MIC); details: P99, read-out: MIC (minimal inhibitory concentration)
Escherichia coli R 57 B = test: in vitro antibacterial activity (MIC); details: Escherichia coli, R57B, read-out: MIC (minimal inhibitory concentration)
[11] = tested on: Klebsiella pneumoniae ATCC 10031; test: in vitro antibacterial activity (MIC), second listing of the strain; details: ATCC10031, collection strain (second listing), read-out: MIC (minimal inhibitory concentration)
Salmonella typhimurium [12] = test: in vitro antibacterial activity (MIC); details: Salmonella enterica, Salmonella typhimurium (first listing), read-out: MIC (minimal inhibitory concentration)
Escherichia coli B = test: in vitro antibacterial activity (MIC); details: Escherichia coli, read-out: MIC (minimal inhibitory concentration)
Escherichia coli V14 = test: in vitro antibacterial activity (MIC); details: read-out: MIC (minimal inhibitory concentration)
Escherichia coli RP 1 = test: in vitro antibacterial activity (MIC); details: RP1, read-out: MIC (minimal inhibitory concentration)
[13] = tested on: Klebsiella pneumoniae ATCC 10031; test: in vitro antibacterial activity (MIC); details: ATCC10031, Klebsiella pneumoniae ATCC 10031 (first listing), read-out: MIC (minimal inhibitory concentration)
Pseudomonas aeruginosa = test: in vitro antibacterial activity (MIC); details: read-out: MIC (minimal inhibitory concentration)
Klebsiella sp. R2 = test: in vitro antibacterial activity (MIC); details: read-out: MIC (minimal inhibitory concentration)
Salmonella panamae F15 = test: in vitro antibacterial activity (MIC); details: Salmonella, F15, read-out: MIC (minimal inhibitory concentration)
[14] = tested on: Staphylococcus aureus Smith; test: in vitro antibacterial activity (MIC); details: collection strain, read-out: MIC (minimal inhibitory concentration)
[15] = tested on: Salmonella montevideo F16; test: in vitro antibacterial activity (MIC); details: Salmonella enterica, read-out: MIC (minimal inhibitory concentration)
Streptococcus pyogenes = test: in vitro antibacterial activity (MIC); details: read-out: MIC (minimal inhibitory concentration)
Escherichia coli P 453 = test: in vitro antibacterial activity (MIC); details: Escherichia coli, P453, read-out: MIC (minimal inhibitory concentration)

Q: Which MIC (Escherichia coli V23) does the source give for `CO[C@@]1(NC(=O)Cc2cccs2)C(=O)N2C(C(=O)O)=C(COC(N)=O)CS[C@@H]21` [Cefoxitin] here?
A: Its MIC is 12.5 µg/mL (≈ 29.2 µM).

Q: And the MIC (Proteus mirabilis V15)?
A: The MIC was 0.78 µg/mL (≈ 1.82 µM).

Q: What about the MIC [1] of the same molecule?
A: Its MIC is 0.78 µg/mL (≈ 1.82 µM).

Q: And the MIC [2]?
A: Its MIC is 3.12 µg/mL (≈ 7.3 µM).

Q: And the MIC (Escherichia coli R 997)?
A: Its MIC is 6.25 µg/mL (≈ 14.6 µM).

Q: And the MIC (Escherichia coli RGN 238)?
A: The MIC was 3.12 µg/mL (≈ 7.3 µM).

Q: What about the MIC (Enterobacter sp V19) of the same molecule?
A: The MIC was 12.5 µg/mL (≈ 29.2 µM).

Q: And the MIC [3]?
A: Its MIC is 6.25 µg/mL (≈ 14.6 µM).

Q: What about the MIC (Proteus mirabilis) of the same molecule?
A: Its MIC is 1.56 µg/mL (≈ 3.65 µM).

Q: What about the MIC (Enterobacter cloacae 214) of the same molecule?
A: The MIC was > 100 µg/mL.

Q: What about the MIC [4] of the same molecule?
A: Its MIC is 0.78 µg/mL (≈ 1.82 µM).

Q: And the MIC (Escherichia coli R 6 K)?
A: Its MIC is 3.1 µg/mL (≈ 7.25 µM).

Q: And the MIC [5]?
A: Its MIC is 0.78 µg/mL (≈ 1.82 µM).

Q: What about the MIC (Proteus vulgaris V15) of the same molecule?
A: The MIC was 0.78 µg/mL (≈ 1.82 µM).

Q: And the MIC (Salmonella derby F14)?
A: Its MIC is 3.12 µg/mL (≈ 7.3 µM).

Q: And the MIC [6]?
A: The MIC was > 100 µg/mL.

Q: And the MIC (Shigella flexneri)?
A: Its MIC is 0.78 µg/mL (≈ 1.82 µM).

Q: And the MIC [7]?
A: Its MIC is 6.25 µg/mL (≈ 14.6 µM).

Q: And the MIC [8]?
A: Its MIC is 0.78 µg/mL (≈ 1.82 µM).

Q: What about the MIC (Escherichia coli R 46) of the same molecule?
A: Its MIC is 1.56 µg/mL (≈ 3.65 µM).

Q: And the MIC (Escherichia coli B Cef R)?
A: Its MIC is > 100 µg/mL.

Q: And the MIC (Salmonella typhimurium [9])?
A: The MIC was 1.56 µg/mL (≈ 3.65 µM).

Q: And the MIC (Proteus mirabilis 525)?
A: The MIC was 1.56 µg/mL (≈ 3.65 µM).

Q: And the MIC [10]?
A: The MIC was 100 µg/mL (≈ 234 µM).

Q: What about the MIC (Escherichia coli R 57 B) of the same molecule?
A: The MIC was 1.56 µg/mL (≈ 3.65 µM).

Q: And the MIC [11]?
A: The MIC was 0.78 µg/mL (≈ 1.82 µM).

Q: What about the MIC (Salmonella typhimurium [12]) of the same molecule?
A: Its MIC is 3.12 µg/mL (≈ 7.3 µM).

Q: What about the MIC (Escherichia coli B) of the same molecule?
A: The MIC was 1.56 µg/mL (≈ 3.65 µM).

Q: And the MIC (Escherichia coli V14)?
A: The MIC was 3.12 µg/mL (≈ 7.3 µM).

Q: And the MIC (Escherichia coli RP 1)?
A: The MIC was 1.56 µg/mL (≈ 3.65 µM).

Q: What about the MIC [13] of the same molecule?
A: Its MIC is 0.78 µg/mL (≈ 1.82 µM).

Q: And the MIC (Pseudomonas aeruginosa)?
A: The MIC was 6.25 µg/mL (≈ 14.6 µM).

Q: And the MIC (Klebsiella sp. R2)?
A: The MIC was 12.5 µg/mL (≈ 29.2 µM).

Q: What about the MIC (Salmonella panamae F15) of the same molecule?
A: Its MIC is 1.56 µg/mL (≈ 3.65 µM).

Q: And the MIC [14]?
A: The MIC was 0.78 µg/mL (≈ 1.82 µM).

Q: And the MIC [15]?
A: The MIC was 3.12 µg/mL (≈ 7.3 µM).

Q: What about the MIC (Streptococcus pyogenes) of the same molecule?
A: The MIC was 1.56 µg/mL (≈ 3.65 µM).

Q: And the MIC (Escherichia coli P 453)?
A: Its MIC is 1.56 µg/mL (≈ 3.65 µM).
